In patent US10517889B2, “Modulators of SMAD7 expression” (Ionis Pharmaceuticals, Inc., priority 2017, dated 2019):
Strand notation (5' to 3'): a small letter for the sugar, then the base; units joined by * are phosphorothioate-linked, units joined directly phosphodiester-linked; [ ] holds rarer units or linkages, { } end groups; capitals alone tell only the bases. e = 2'-O-(2-methoxyethyl) (MOE); [5mC] = 5-methylcytosine; d = 2'-deoxy (DNA)

System: human SMAD7 mRNA
Assay: Antisense inhibition of human SMAD7 mRNA expression in Hep3B cells by 5-10-5 MOE gapmers, single concentration, electroporation, RT-PCR (Example 1, Study 1 and 2)
Assay type: cell-based
Description: Antisense oligonucleotides were designed to target human SMAD7 mRNA and were tested for their effects on SMAD7 mRNA expression in vitro. Cultured Hep3B cells at a density of 20,000 cells per well were transfected using electroporation with antisense oligonucleotide ION 483663 (a 5-10-5 MOE gapmer), the sequence of which overlaps with ION 28453 (a 4-10-4 MOE gapmer) was included in these assays for comparison. ION 28453 has been previously disclosed in U.S. Pat. No. 6,159,697). After a treatment period of approximately 24 hours, RNA was isolated from the cells and SMAD7 mRNA levels were measured by quantitative real-time PCR. Primer probe set RTS5062 (forward sequence […], designated herein as SEQ ID NO: 11; reverse sequence […], designated herein as SEQ ID NO: 12; probe sequence […], designated herein as SEQ ID NO: 13) was used to measure human SMAD7 mRNA levels. SMAD7 mRNA levels were adjusted according to total RNA content, as measured by RIBOGREEN®. Results are presented as percent inhibition of SMAD7 mRNA expression, relative to untreated control cells.
The newly designed chimeric antisense oligonucleotides in the Tables below were designed as 5-10-5 MOE gapmers. The gapmers are 20 nucleosides in length, wherein the central gap segment comprises of ten 2′-deoxynucleosides and is flanked by wing segments on the 5′ direction and the 3′ direction comprising five nucleosides each. Each nucleoside in the 5′ wing segment and each nucleoside in the 3′ wing segment has a 2′-MOE modification. The internucleoside linkages throughout each gapmer are phosphorothioate (P═S) linkages. All cytosine residues throughout each gapmer are 5-methylcytosines.
“Start site” indicates the 5′-most nucleoside to which the gapmer is targeted in the human gene sequence. “Stop site” indicates the 3′-most nucleoside to which the gapmer is targeted human gene sequence.
Cultured Hep3B cells at a density of 20,000 cells per well were transfected using electroporation with 5,000 nM antisense oligonucleotide.
Cultured Hep3B cells at a density of 20,000 cells per well were transfected using electroporation with 15,000 nM antisense oligonucleotide. The antisense oligonucleotides were tested in a series of experiments that had similar culture conditions as described below.
Some of the oligonucleotides presented were complementary to SMAD7 mRNA sequences RefSeqNo. NM_001190821.1 (designated herein as SEQ ID NO: 3) or RefSeqNo. NM_001190822.1 (designated herein as SEQ ID NO: 4), and are presented in a separate table shown below.

[1] = electroporation, 15,000 nM antisense oligonucleotide (Study 2), 5-10-5 MOE gapmers targeting SEQ ID NO: 1 and 2
[2] = Study 2, electroporation with 15,000 nM antisense oligonucleotide, 5-10-5 MOE gapmers targeting SEQ ID NO: 1 and 2
[3] = electroporation, 5,000 nM, approximately 24 hours, relative to untreated control cells, gapmers targeting SEQ ID NO: 1 and 2
[4] = electroporation with 15,000 nM antisense oligonucleotide (Study 2), 5-10-5 MOE gapmers targeting SEQ ID NO: 1 and 2
[5] = electroporation, 15,000 nM, approximately 24 hours, gapmers targeting SEQ ID NO: 3 and 4
[6] = electroporation, 15,000 nM, approximately 24 hours, relative to untreated control cells, gapmers targeting SEQ ID NO: 1 and 2

Row | Substance | % inhibition of SMAD7 mRNA expression [1] [%] | % Inhibition [2] [%] | also measured
1 | 483664 (antisense eT*eG*e[5mC]*eT*e[5mC]*dA*dG*d[5mC]*dT*d[5mC]*dA*d[5mC]*dG*d[5mC]*dT*e[5mC]*eT*eG*eT*e[5mC]) [compound 483664] | 36 | – | –
2 | 483665 (antisense eG*e[5mC]*eG*eA*eA*d[5mC]*dA*dT*dG*dA*d[5mC]*d[5mC]*dT*d[5mC]*d[5mC]*eG*e[5mC]*eA*e[5mC]*eA) [compound 483665] | – | 55 | % inhibition of SMAD7 mRNA expression [3]: 10%
3 | 582468 (antisense eG*e[5mC]*e[5mC]*eA*eA*dT*dA*dT*d[5mC]*dA*dT*dA*dA*d[5mC]*d[5mC]*e[5mC]*eA*eA*eG*e[5mC]) [compound 582468] | – | – | % inhibition of SMAD7 mRNA expression [2]: 4%; % inhibition of SMAD7 mRNA expression [4]: 0%
4 | 771342 (antisense eT*e[5mC]*eA*eG*eT*dT*dG*dG*dT*dT*dT*dG*dA*dG*dA*eA*eA*eA*eT*e[5mC]) [compound 771342] | – | – | % inhibition of SMAD7 mRNA expression [5]: 35%
5 | 771343 (antisense eG*eA*e[5mC]*eA*eG*dT*d[5mC]*dA*dG*dT*dT*dG*dG*dT*dT*eT*eG*eA*eG*eA) [compound 771343] | – | – | % inhibition of SMAD7 mRNA expression [5]: 0%
6 | 771344 (antisense eA*eT*e[5mC]*eT*eG*dG*dA*d[5mC]*dA*dG*dT*d[5mC]*dA*dG*dT*eT*eG*eG*eT*eT) [compound 771344] | – | – | % inhibition of SMAD7 mRNA expression [5]: 17%
7 | 771346 (antisense e[5mC]*eG*eT*eG*eA*dT*dT*d[5mC]*dT*d[5mC]*d[5mC]*dG*dT*dA*dT*eT*eT*eA*e[5mC]*eT) [compound 771346] | – | 22 | –
8 | 771347 (antisense eT*eG*eG*eG*e[5mC]*d[5mC]*dA*d[5mC]*dT*dG*dG*dT*dG*dT*dT*e[5mC]*eG*eA*e[5mC]*eG) [compound 771347] | 0 | – | % Inhibition of SMAD7 mRNA [4]: 32%
9 | 771348 (antisense eG*eG*e[5mC]*e[5mC]*eA*d[5mC]*dG*dA*d[5mC]*dA*dG*dT*dA*dT*d[5mC]*eT*eG*eG*eG*e[5mC]) [compound 771348] | 42 | – | –
10 | 771349 (antisense eA*e[5mC]*eT*e[5mC]*e[5mC]*dA*dA*dA*dG*dG*dT*dG*d[5mC]*dG*d[5mC]*eG*eG*e[5mC]*e[5mC]*eA) [compound 771349] | 26 | – | –
11 | 771350 (antisense eT*eT*eT*eG*e[5mC]*d[5mC]*d[5mC]*d[5mC]*dA*dA*dA*dA*d[5mC]*dT*d[5mC]*e[5mC]*eA*eA*eA*eG) [compound 771350] | – | 28 | % inhibition of SMAD7 mRNA expression [3]: 68%
12 | 771351 (antisense e[5mC]*eT*e[5mC]*eT*e[5mC]*dT*dT*dT*dG*d[5mC]*d[5mC]*d[5mC]*d[5mC]*dA*dA*eA*eA*e[5mC]*eT*e[5mC]) [compound 771351] | – | 11 | –
13 | 771352 (antisense eT*e[5mC]*e[5mC]*eA*eA*d[5mC]*dT*d[5mC]*dT*d[5mC]*dT*dT*dT*dG*d[5mC]*e[5mC]*e[5mC]*e[5mC]*eA*eA) [compound 771352] | – | – | % inhibition of SMAD7 mRNA expression [6]: 54%
14 | 771353 (antisense eT*eT*e[5mC]*e[5mC]*eA*dT*d[5mC]*d[5mC]*dA*dA*d[5mC]*dT*d[5mC]*dT*d[5mC]*eT*eT*eT*eG*e[5mC]) [compound 771353] | – | 0 | –
15 | 771354 (antisense e[5mC]*eG*eG*e[5mC]*e[5mC]*dT*dT*d[5mC]*d[5mC]*dA*dT*d[5mC]*d[5mC]*dA*dA*e[5mC]*eT*e[5mC]*eT*e[5mC]) [compound 771354] | – | 39 | –
16 | 771355 (antisense e[5mC]*eA*eG*eT*eT*d[5mC]*dG*dG*d[5mC]*d[5mC]*dT*dT*d[5mC]*d[5mC]*dA*eT*e[5mC]*e[5mC]*eA*eA) [compound 771355] | 0 | – | % Inhibition of SMAD7 mRNA [4]: 13%
17 | 771356 (antisense eT*e[5mC]*e[5mC]*eA*eG*dT*dT*d[5mC]*dG*dG*d[5mC]*d[5mC]*dT*dT*d[5mC]*e[5mC]*eA*eT*e[5mC]*e[5mC]) [compound 771356] | – | – | % inhibition of SMAD7 mRNA expression [5]: 40%
18 | 771357 (antisense eG*eA*eG*eT*e[5mC]*dA*dG*dG*d[5mC]*dT*d[5mC]*dA*dA*dT*dG*eA*eG*eA*e[5mC]*eT) [compound 771357] | 16 | – | –

Row | Substance | % inhibition of SMAD7 mRNA expression [1] [%] | % Inhibition [2] [%] | also measured
19 | 771358 (antisense eA*eG*eT*eT*eA*dA*dT*d[5mC]*dA*dT*dT*dA*d[5mC]*dT*d[5mC]*eG*eA*eG*eT*e[5mC]) [compound 771358] | – | 36 | % inhibition of SMAD7 mRNA expression [3]: 53%
20 | 771359 (antisense eG*eT*e[5mC]*eA*e[5mC]*d[5mC]*d[5mC]*dG*dT*d[5mC]*dT*dG*dG*dG*d[5mC]*eT*e[5mC]*e[5mC]*eG*eG) [compound 771359] | – | 15 | –
21 | 771360 (antisense eA*e[5mC]*e[5mC]*eT*eT*dG*dT*d[5mC]*dA*d[5mC]*d[5mC]*d[5mC]*dG*dT*d[5mC]*eT*eG*eG*eG*e[5mC]) [compound 771360] | – | – | % inhibition of SMAD7 mRNA expression [6]: 49%
22 | 771361 (antisense eA*e[5mC]*eA*eG*e[5mC]*dA*d[5mC]*d[5mC]*dT*dT*dG*dT*d[5mC]*dA*d[5mC]*e[5mC]*e[5mC]*eG*eT*e[5mC]) [compound 771361] | – | 27 | –
23 | 771362 (antisense eG*eT*eA*eA*eG*dA*d[5mC]*dA*dG*dA*d[5mC]*d[5mC]*dA*d[5mC]*dA*eG*e[5mC]*eA*e[5mC]*e[5mC]) [compound 771362] | – | 15 | –
24 | 771363 (antisense eT*e[5mC]*eA*eG*eG*d[5mC]*dT*dT*d[5mC]*dA*d[5mC]*dT*dG*d[5mC]*d[5mC]*e[5mC]*eA*eT*e[5mC]*eG) [compound 771363] | 12 | – | % Inhibition of SMAD7 mRNA [4]: 35%
25 | 771364 (antisense eT*eA*eA*eT*eG*dG*dT*d[5mC]*dT*dG*d[5mC]*dT*d[5mC]*dA*dG*eG*e[5mC]*eT*eT*e[5mC]) [compound 771364] | 23 | – | –
26 | 771365 (antisense eA*eT*eT*eA*eT*dT*dA*dA*dT*dG*dG*dT*d[5mC]*dT*dG*e[5mC]*eT*e[5mC]*eA*eG) [compound 771365] | 5 | – | –
27 | 771366 (antisense eT*eG*e[5mC]*eT*eG*dA*dT*dT*dA*dT*dT*dA*dA*dT*dG*eG*eT*e[5mC]*eT*eG) [compound 771366] | – | 0 | % inhibition of SMAD7 mRNA expression [3]: 49%
28 | 771367 (antisense e[5mC]*eT*eT*eG*eA*dT*dG*d[5mC]*dT*dG*dA*dT*dT*dA*dT*eT*eA*eA*eT*eG) [compound 771367] | – | 0 | –
29 | 771368 (antisense e[5mC]*eG*eG*e[5mC]*e[5mC]*dT*dT*dG*dA*dT*dG*d[5mC]*dT*dG*dA*eT*eT*eA*eT*eT) [compound 771368] | – | – | % inhibition of SMAD7 mRNA expression [6]: 27%
30 | 771369 (antisense e[5mC]*eA*eA*eA*eA*dG*dG*d[5mC]*dT*dG*dA*d[5mC]*dT*d[5mC]*dG*e[5mC]*eG*eG*e[5mC]*e[5mC]) [compound 771369] | – | 22 | –
31 | 771370 (antisense e[5mC]*eA*eT*eT*e[5mC]*d[5mC]*dA*dA*dA*dA*dG*dG*d[5mC]*dT*dG*eA*e[5mC]*eT*e[5mC]*eG) [compound 771370] | – | 18 | –
32 | 771372 (antisense eA*e[5mC]*eA*eA*eA*d[5mC]*d[5mC]*dA*d[5mC]*dA*d[5mC]*dA*dT*dT*d[5mC]*e[5mC]*eA*eA*eA*eA) [compound 771372] | 37 | – | –
33 | 771373 (antisense eG*eA*eA*eA*eG*dA*d[5mC]*dA*dA*dA*d[5mC]*d[5mC]*dA*d[5mC]*dA*e[5mC]*eA*eT*eT*e[5mC]) [compound 771373] | 32 | – | –
34 | 771374 (antisense eA*eG*e[5mC]*eA*eT*dG*dA*dA*dA*dG*dA*d[5mC]*dA*dA*dA*e[5mC]*e[5mC]*eA*e[5mC]*eA) [compound 771374] | – | 51 | % inhibition of SMAD7 mRNA expression [3]: 44%
35 | 771375 (antisense e[5mC]*eT*eA*eA*eA*d[5mC]*dA*dG*d[5mC]*dA*dT*dG*dA*dA*dA*eG*eA*e[5mC]*eA*eA) [compound 771375] | – | 4 | –
36 | 771376 (antisense eA*e[5mC]*eG*e[5mC]*eT*d[5mC]*dT*dA*dA*dA*d[5mC]*dA*dG*d[5mC]*dA*eT*eG*eA*eA*eA) [compound 771376] | – | – | % inhibition of SMAD7 mRNA expression [6]: 17%
